GI50 and IC50 data for seven molecules are collected here from ChEMBL document CHEMBL5620431, “2,4-Diaryl-pyrimido[1,2-a]benzimidazole derivatives as novel anticancer agents endowed with potent anti-leukemia activity: Synthesis, biological evaluation and kinase profiling” (Eur J Med Chem, 2023).

One experiment relates to CCRF-CEM. Kind of experiment: Antiproliferative activity against human CCRF-CEM cells assessed as cell growth inhibition incubated for 48 hrs by MTT assay. The format is functional. For orientation: Tetrazolium dyes change colour on reduction, which living cells bring about.
In experiment [1] the target is T1, Receptor-type tyrosine-protein kinase FLT3 (Homo sapiens, UniProt P36888).
T1 sequence (P36888 whole entry): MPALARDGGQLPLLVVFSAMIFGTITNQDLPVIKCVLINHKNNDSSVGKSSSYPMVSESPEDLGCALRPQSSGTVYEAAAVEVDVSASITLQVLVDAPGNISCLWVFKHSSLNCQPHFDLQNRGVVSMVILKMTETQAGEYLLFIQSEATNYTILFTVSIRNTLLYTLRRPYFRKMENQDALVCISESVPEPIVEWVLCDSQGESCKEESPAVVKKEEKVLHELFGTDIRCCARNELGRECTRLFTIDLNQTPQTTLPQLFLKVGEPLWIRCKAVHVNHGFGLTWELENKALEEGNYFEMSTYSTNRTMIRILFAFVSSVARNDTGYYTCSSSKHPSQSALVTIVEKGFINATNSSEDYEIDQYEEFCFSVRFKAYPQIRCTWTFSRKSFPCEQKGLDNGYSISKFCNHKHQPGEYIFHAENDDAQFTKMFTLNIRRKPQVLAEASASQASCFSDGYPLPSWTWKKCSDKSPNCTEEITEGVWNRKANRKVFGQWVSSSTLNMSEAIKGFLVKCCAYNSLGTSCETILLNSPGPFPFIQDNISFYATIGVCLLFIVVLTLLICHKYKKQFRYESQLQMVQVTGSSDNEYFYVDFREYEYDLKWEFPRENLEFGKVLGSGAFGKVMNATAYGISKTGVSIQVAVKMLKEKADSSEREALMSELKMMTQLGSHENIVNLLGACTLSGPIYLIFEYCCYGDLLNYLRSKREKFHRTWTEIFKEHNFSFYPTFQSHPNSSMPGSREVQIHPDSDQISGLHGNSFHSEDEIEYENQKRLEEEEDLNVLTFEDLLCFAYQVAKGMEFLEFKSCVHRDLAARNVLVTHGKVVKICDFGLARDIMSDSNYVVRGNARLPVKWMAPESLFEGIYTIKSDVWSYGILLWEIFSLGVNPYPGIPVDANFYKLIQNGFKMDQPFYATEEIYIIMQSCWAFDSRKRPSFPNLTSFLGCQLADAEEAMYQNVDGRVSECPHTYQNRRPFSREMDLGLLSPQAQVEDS
The experiment is described as follows: Inhibition of FLT3 (unknown origin).

Another experiment concerns BaF3. Kind of experiment: Antiproliferative activity against TEL-BMX transformed mouse BaF3 cells assessed as inhibition of cell proliferation.

One may read the GI50 as the concentration at which growth is held to half of that of the control. As for `CCOC(=O)c1cnc2c(-c3nc4ccccc4s3)c(NC)nn2c1O`, the GI50 in the experiment with CCRF-CEM is 16300 nM.
Broadly, the IC50 is the concentration that inhibits the measured activity by half. As to `Cc1oncc1C(=O)Nc1ccc2[nH]c(-c3cnn(-c4ccccc4)c3C(F)(F)F)nc2c1`, half-maximal inhibition in experiment [1] (IC50) required 495 nM.
On the same count and under the same terms, under `Cc1oncc1C(=O)Nc1ccc2[nH]c(-c3cc(-n4cncc4C)cc(C(F)(F)F)c3)nc2c1` stands 495 nM; under `Cc1cn(-c2cc(-c3nc4cc(NC(=O)c5cnoc5C)ccc4[nH]3)cc(C(F)(F)F)c2)cn1`, 495 nM.
Still for that read-out and setting: with `Cc1oncc1C(=O)Nc1ccc2[nH]c(-c3cc(-n4ccnc4C)cc(C(F)(F)F)c3)nc2c1` the figure was 495 nM; with `Cc1oncc1C(=O)Nc1ccc2[nH]c(-c3cc(N4CCOCC4)cc(C(F)(F)F)c3)nc2c1`, 495 nM.
On to `C=CC(=O)Nc1cc(-n2c(=O)ccc3cnc4ccc(-c5ccc(NS(C)(=O)=O)cc5)cc4c32)ccc1C`, for which, in the experiment on BaF3, the IC50 was 25 nM.
